Patent US20170313674A1, “BENZYLHYDROXIDE DERIVATIVES, PREPARATION THEREOF AND THERAPEUTIC USE THEREOF” (SANOFI, priority 2014, published 2017)
Read-outs that look alike come from different tables or passages of the source.

Legend:
[1] = tested on: mitochondrial ATP production on non-small cell lung carcinoma cell lines NCI-H460; assay: Mitochondrial ATP analysis (Cell Titer Glo) in NCI-H460 cells; assay type: cell-based; settings: 1-hour incubation, with sodium iodoacetate (100 μM), concentration inhibiting 50% of mitochondrial ATP production, read-out: IC50 (mito ATP)
Outline: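 NCI-H460 cells (1,000/well) treated 24 h after plating for 1 h with compound dose series alone or with 100 μM sodium iodoacetate; oligomycin A (10 μg/ml) and FCCP (30 μM) as controls; Cell Titer Glo luminescence. Mitochondrial ATP = ATP under iodoacetate minus ATP under iodoacetate+oligomycin; IC50 (M).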

[2] = tested on: HIF-1a; assay: Western blot model: HIF1-a stabilization in Hep3b cells under hypoxia; assay type: cell-based; settings: hypoxia 1% O2, 6 hours; for Western Blot (range of decrease of HIF1-a stabilization): class symbol
Outline: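 Hep3B cells were exposed to compound under hypoxia (1% O2, 37 °C, 5% CO2) for 6 hours. HIF-1a was detected by western blot of 25 μg lysate protein with β-actin as loading control and ECL read-out. Activity is given as a percentage range relative to control.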

Row | IC50 ([1]; Homo sapiens, NCI-H460, 1 h) [nM] | IC50 [1] [nM] | SMILES | Western Blot (decrease of HIF1-a stabilization, percentage relative to control) [2] [%] | Western Blot (range of decrease of HIF1-a stabilization) [2]
1 | 7.32 | – | COc1ccc(C(O)C(C)(C)Oc2ccc(-c3csc(-c4ccc(OC(C)(C)C(O)c5ccc(OC)c(OC)c5)cc4)n3)cc2)cc1OC (stereo not drawn) [Compound I-26, 1-(3,4-dimethoxyphenyl)-2-[4-[2-[4-[2-(3,4-dimethoxyphenyl)-2-hydroxy-1,1-dimethyl-ethoxy]phenyl]thiazol-4-yl]phenoxy]-2-methyl-propan-1-ol] | 39 | * (* represents a decrease of HIF-a stabilization between 30 to 50%)
2 | – | 3.68 | COc1ccc(C(O)C(C)(C)Oc2ccc(-c3csc(-c4ccc(OC(C)(C)C(O)c5ccc(OC)c(OC)c5)cc4)n3)cc2)cc1OC (stereo not drawn) [Compound I-27, 1-(3,4-dimethoxyphenyl)-2-[4-[2-[4-[2-(3,4-dimethoxyphenyl)-2-hydroxy-1,1-dimethyl-ethoxy]phenyl]thiazol-4-yl]phenoxy]-2-methyl-propan-1-ol] | 40 | * (* represents a decrease of HIF-a stabilization between 30 to 50%)
3 | 6 | – | COc1ccc(C(O)C(C)(C)Oc2ccc(-c3csc(-c4ccc(OC(C)(C)C(O)c5ccc(OC)c(OC)c5)cc4)c3)cc2)cc1OC (stereo not drawn) [Compound I-34, 1-(3,4-dimethoxyphenyl)-2-[4-[5-[4-[2-(3,4-dimethoxyphenyl)-2-hydroxy-1,1-dimethyl-ethoxy]phenyl]-3-thienyl]phenoxy]-2-methyl-propan-1-ol] | 64 | ** (** represents a decrease of HIF-a stabilization between 50 to 70%)
4 | 303 | – | COc1ccc(C(O)COc2ccc(-c3csc(-c4ccc(OCC(O)c5ccc(OC)c(OC)c5)cc4)c3)cc2)cc1OC (stereo not drawn) [Compound I-35, 1-(3,4-dimethoxyphenyl)-2-[4-[5-[4-[2-(3,4-dimethoxyphenyl)-2-hydroxy-ethoxy]phenyl]-3-thienyl]phenoxy]ethanol] | 68 | ** (** represents a decrease of HIF-a stabilization between 50 to 70%)
5 | 676 | – | COc1ccc(C(O)COc2ccc(-c3noc(-c4ccc(OCC(O)c5ccc(OC)c(OC)c5)cc4)n3)cc2)cc1OC (stereo not drawn) [Compound I-36, 1-(3,4-dimethoxyphenyl)-2-[4-[5-[4-[2-(3,4-dimethoxyphenyl)-2-hydroxy-ethoxy]phenyl]-1,2,4-oxadiazol-3-yl]phenoxy]ethanol] | 62 | ** (** represents a decrease of HIF-a stabilization between 50 to 70%)
6 | – | 133 | COc1ccc(C(O)C(C)(C)Oc2ccc(-c3noc(-c4ccc(OC(C)(C)C(O)c5ccc(OC)c(OC)c5)cc4)n3)cc2)cc1OC (stereo not drawn) [Compound I-38, 1-(3,4-dimethoxyphenyl)-2-[4-[5-[4-[2-(3,4-dimethoxyphenyl)-2-hydroxy-11-dimethyl-ethoxy]phenyl]-1,2,4-oxadiazol-3-yl]phenoxy]-2-methyl-propan-1-ol] | 79 | *** (*** represents a decrease of HIF-a stabilization higher than 70%)
7 | 92.5 | – | COc1ccc(C(O)C(C)Oc2ccc(-c3nsc(-c4ccc(OC(C)C(O)c5ccc(OC)c(OC)c5)cc4)n3)cc2)cc1OC (stereo not drawn) [Compound I-39, 1-(3,4-dimethoxyphenyl)-2-[4-[5-[4-[2-(3,4-dimethoxyphenyl)-2-hydroxy-1-methyl-ethoxy]phenyl]-1,2,4-thiadiazol-3-yl]phenoxy]propan-1-ol] | 51 | ** (** represents a decrease of HIF-a stabilization between 50 to 70%)
8 | 30 | – | COc1ccc(C(O)C(C)(C)Oc2ccc(-c3nsc(-c4ccc(OC(C)(C)C(O)c5ccc(OC)c(OC)c5)cc4)n3)cc2)cc1OC (stereo not drawn) [Compound I-42, 1-(3,4-dimethoxyphenyl)-2-[4-[5-[4-[2-(3,4-dimethoxyphenyl)-2-hydroxy-1,1-dimethyl-ethoxy]phenyl]-1,2,4-thiadiazol-3-yl]phenoxy]-2-methyl-propan-1-ol] | 56 | ** (** represents a decrease of HIF-a stabilization between 50 to 70%)
9 | 426 | – | COc1ccc(C(O)C(C)Oc2ccc(-c3cnc(-c4ccc(OC(C)C(O)c5ccc(OC)c(OC)c5)cc4)o3)cc2)cc1OC (stereo not drawn) [Compound I-45, 1-(3,4-dimethoxyphenyl)-2-[4-[2-[4-[2-(3,4-dimethoxyphenyl)-2-hydroxy-1-methyl-ethoxy]phenyl]oxazol-5-yl]phenoxy]propan-1-ol] | 87 | *** (*** represents a decrease of HIF-a stabilization higher than 70%)
10 | 51.9 | – | COc1ccc(C(O)C(C)(C)Oc2ccc(-c3cn(C)c(-c4ccc(OC(C)(C)C(O)c5ccc(OC)c(OC)c5)cc4)n3)cc2)cc1OC (stereo not drawn) [Compound I-57, 1-(3,4-dimethoxyphenyl)-2-[4-[2-[4-[2-(3,4-dimethoxyphenyl)-2-hydroxy-1,1-dimethyl-ethoxy]phenyl]-1-methyl-imidazol-4-yl]phenoxy]-2-methyl-propan-1-ol] | 18 | − (− represents a decrease of HIF1-a stabilization is less than 30%)
11 | 458 | – | COc1ccc(C(O)COc2ccc(-c3cn(C)c(-c4ccc(OCC(O)c5ccc(OC)c(OC)c5)cc4)n3)cc2)cc1OC (stereo not drawn) [Compound I-58, 1-(3,4-dimethoxyphenyl)-2-[4-[2-[4-[2-(3,4-dimethoxyphenyl)-2-hydroxy-ethoxy]phenyl]-1-methyl-imidazol-4-yl]phenoxy]ethanol] | 56 | ** (** represents a decrease of HIF-a stabilization between 50 to 70%)
12 | 42.9 | – | COc1ccc(C(O)COc2ccc(-c3csc(-c4ccc(OC(C)(C)C(O)c5ccc(OC)c(OC)c5)cc4)n3)cc2)cc1OC (stereo not drawn) [Compound I-63, 1-(3,4-dimethoxyphenyl)-2-[4-[4-[4-[2-(3,4-dimethoxyphenyl)-2-hydroxy-ethoxy]phenyl]thiazol-2-yl]phenoxy]-2-methyl-propan-1-ol] | 64 | ** (** represents a decrease of HIF-a stabilization between 50 to 70%)
13 | 180 | – | COc1ccc(C(O)COc2ccc(-c3nc(-c4ccc(OC(C)(C)C(O)c5ccc(OC)c(OC)c5)cc4)cs3)cc2)cc1OC (stereo not drawn) [Compound I-64, 1-(3,4-dimethoxyphenyl)-2-[4-[2-[4-[2-(3,4-dimethoxyphenyl)-2-hydroxy-ethoxy]phenyl]thiazol-4-yl]phenoxy]-2-methyl-propan-1-ol] | 58 | ** (** represents a decrease of HIF-a stabilization between 50 to 70%)
